Like-named read-outs stand apart in the source and are kept apart here.
Experiments:
[1] = cited from earlier work; for Water Sol: Table 2
[2] = In vitro permeation (flux) test, modified Franz vertical diffusion cell, Strat-M synthetic membrane; assay type: in vitro ADME
Procedure: For in vitro permeation testing, the prepared transdermal formulations in the following examples were subjected to a flux (in vitro permeation) test as follows with either full-split thickness human cadaver skin or Strat-M® synthetic membrane. The full-split thickness human cadaver skin is prepared by thawing at room temperature in DI water, after which it is placed into a 55° C. water bath for a few minutes. After removal from elevated temperature water bath, the stratum corneum layer is removed, inspected, blotted, and cut into suitable sized samples for placement on a modified Franz vertical diffusion cell. Meanwhile, the Strat-M® synthetic membrane is utilized as instructed by the Millipore-Sigma instruction guide on its use. The patches are die cut to a 5/16″ diameter (˜0.5 cm^2) and affixed to the skin with use of an overlay to secure patch to skin. Receiver media is either standard saline (0.9% NaCl in DI water) or a fixed concentration (1%-5%) of povidone in DI Water. Sample volume is 5 mL, Franz cell volume is 5 mL. […] Actual patch size is 0.5 cm^2 with an effective flux area of about 0.6 cm^2. Aliquots taken are analyzed by HPLC method for each independent API. Typically, 3-5 replicates per formulation are performed to ensure adequate statistical significance is obtained for each study.

[3] = Drug product stability: potency and degradation products by relative retention time, liquid chromatography; assay type: physicochemical; details: with panthenol and/or other humectants; long term stability studies at room temperature and above 40° C.
Source text: In Example 9, the effect of the incorporation of a humectant (e.g., panthenol) into the molecular solid suspension on the API stability and permeability is shown. […] In the tables below, TDS-009 includes 8 wt. % LLD, 5 wt. % Panthenol, 10% Poloxamer P407, 5 wt. % crospovidone and 22.5 wt. % Brij L4 in the presence of 49.5 wt. % DuroTak 87-4098 acrylic PSA, while TDS-011 is the same as TDS-009 without presence of 5 wt. % Panthenol, making up for the 5 wt. % difference with additional DuroTak 87-4098 acrylic PSA for a total of 54.5 wt. %.
Generally, the incorporation of panthenol into the molecular solid suspension results in a 10-fold reduction in hydrolytic degradation.
Each of the above formulations was protected from light, but not from ambient storage conditions of about 21° C. and ambient relative humidity.

[4] = assay type: in vitro ADME

SMILES: Clc1cccc(Cl)c1N=C1NCCN1 [Clonidine]
- Water Sol [1]: ~1 mg/mL

SMILES: C#C[C@]1(O)CC[C@H]2[C@@H]3CCc4cc(O)ccc4[C@H]3CC[C@@]21C [Ethinyl Estradiol]
- Water Sol [1]: ~0.1 mg/mL

SMILES: CN1C2CCCC1CC(NC(=O)c1nn(C)c3ccccc13)C2 (centres unmarked) [Granisetron]
- Water Sol [1]: ~40 mg/mL
- water solubility [1]: less than 0.1 mg/mL

SMILES: C[C@@H]1C[C@H]2[C@@H]3CCC4=CC(=O)C=C[C@]4(C)[C@@]3(F)[C@@H](O)C[C@]2(C)[C@@]1(O)C(=O)CO [dexamethasone]
- increase in slope (average flux and cumulative flux) ([2]; 5 wt. % dexamethasone, 5 wt. % Kollidon CLM, 20 wt. % Laureth-4, 70 wt. % Durotak 87-4098 vs comparators, FIGS. 9-10): almost an infinite increase

SMILES: O=C1CC[C@H](N2Cc3c(OCc4ccc(CN5CCOCC5)cc4)cccc3C2=O)C(=O)N1 [iberdomide]
- water solubility [1]: less than 2 mg/mL

SMILES: Nc1cccc2c1CN(C1CCC(=O)NC1=O)C2=O (centres unmarked) [lenalidomide]
- observed flux rate ([2]; 4 wt. % drug formulation, FIGS. 13-14): 2.4 μg/cm^2/hr
- average flux rate ([2]; 6 wt. % lenalidomide without panthenol, FIGS. 13-14): 4.2 μg/cm^2/hr
- average flux rate ([2]; 6 wt. % lenalidomide without panthenol, FIGS. 15-16): 5.1 μg/cm^2/hr
- overall permeation relative to same formulation excluding panthenol ([2]; 6 wt. % lenalidomide, 5 wt. % panthenol, FIGS. 13-14): about 1.2 times
- overall permeation relative to same formulation excluding panthenol ([2]; 6 wt. % lenalidomide, 5 wt. % panthenol, FIGS. 15-16): about 1.5 times
- average flux rate ([2]; 6 wt. % lenalidomide, 5 wt. % panthenol, after about the 8 hour time point, FIGS. 13-14): 5.4 μg/cm^2/hr
- average flux rate ([2]; 6 wt. % lenalidomide, 5 wt. % panthenol, after about the 8 hour time point, FIGS. 15-16): 7.5 μg/cm^2/hr
- average flux rate ([2]; 10 wt. % lenalidomide without panthenol, FIGS. 11-12): 3.4 μg/cm^2/hr
- overall permeation relative to same formulation excluding panthenol ([2]; 10 wt. % lenalidomide, 5 wt. % panthenol, FIGS. 11-12): about 1.4 times
- average flux rate ([2]; 10 wt. % lenalidomide, 5 wt. % panthenol, after about the 8 hour time point, FIGS. 11-12): 4.7 μg/cm^2/hr
- average flux ([2]; HLB below 12 surfactants (O3, O5) with poloxamer P407 vs without poloxamer, FIG. 21): increased
- average flux ([2]; at 24 hours, with both humectant and high HLB nonionic surfactant (panthenol and P407), low HLB surfactant O3, FIG. 17): about 6 μg/cm^2/hr
- average flux ([2]; formulations with greater than about 15 wt. % O3 vs about 15 wt. % or less, FIG. 19): significantly higher
- hydrolytic degradation [3]: inhibits hydrolytic degradation
- average flux ([4]; formulations with greater than about 15 wt. % O3 vs about 15 wt. % or less, FIG. 18): significantly higher
- average flux ([4]; nonionic surfactants with HLB below 12 (O3, O5) vs HLB above 12 (O10, O20), FIG. 20): increased

SMILES: Cc1cc2c(s1)Nc1ccccc1N=C2N1CCN(C)CC1 [olanzapine, 2-methyl-10-(4-methyl-1-piperazinyl)-4H-thieno-[2,3-b][1,5]benzo-diazepine]
- depletion ([2]; 5 wt. % olanzapine molecular solid suspension with Laureth-4, after about 24 hours): 100%
- increase in availability (average flux) at about 8-hour time point ([2]; 5 wt. % olanzapine molecular solid suspension with Laureth-4 vs comparators, FIG. 3): about 16 ×
- increase in slope for cumulative flux ([2]; 5 wt. % olanzapine, 5 wt. % Kollidon CLM, 20 wt. % Laureth-4, 70 wt. % Durotak 87-4098 vs formulations without Laureth-4, FIG. 4): approximately 1.2 ×
- depletion ([2]; other two olanzapine formulations (no Laureth-4), over 72 hours): 60%
